# Test results from publication PMC2790855, “BU-32: a novel proteasome inhibitor for breast cancer” (2009).
# Molecular target: T1, 20S proteasome caspase-like activity (β1-subunit) (Homo sapiens, UniProt P28072)
# T1 construct: gene PSMB6; with 20S proteasome
# T1 sequence (P28072 35-239): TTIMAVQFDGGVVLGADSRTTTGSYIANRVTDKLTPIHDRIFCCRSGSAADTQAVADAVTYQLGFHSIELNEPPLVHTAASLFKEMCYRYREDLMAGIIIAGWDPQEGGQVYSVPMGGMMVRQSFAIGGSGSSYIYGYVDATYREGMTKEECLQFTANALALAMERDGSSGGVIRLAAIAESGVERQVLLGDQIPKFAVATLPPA
# Assay: Proteasome-Glo caspase-like assay in MDA-MB-231, MCF7 and SKBR3 cells treated […] h with […]; reference inhibitor
# Format: cell-based
structure (smiles),measurement,value
CC(C)C[C@H](NC(=O)[C@H](Cc1ccccc1)NC(=O)c1cnccn1)B(O)O [Bortezomib],"Proteasome-Glo caspase-like assay in MDA-MB-231, MCF7 and SKBR3 cells treated 24","analyzed for the inhibition of chymotryptic-like, caspase-like, and tryptic-like intracellular proteasome activities"
